Laboratory results as given in US20090029992A1, “SUBSTITUTED PYRAZOLE COMPOUNDS” (priority 2007, published 2009).

What was measured:
HCT116 cells = assay: Whole cell cytotoxicity assay, Sulforhodamine B; type: cell-based; conditions: Homo sapiens, HCT-116, HCT116, 96 hours incubation, SRB; for IC50: read-out: IC50 values in this assay (HCT116 cell growth); for GI50: read-out: GI50 HCT116 cell growth
Method: Human tumor-derived cell lines, HCT116 or MCF7 (ATCC) were plated in a 96 well plate in DMEM containing 10% fetal bovine serum and 2 mM L-glutamine at a density of 500 HCT116 cells or 1,000 MCF7 cells per well and incubated at 37° C., 5% CO2, for 24 hours prior to the addition of experimental compounds. Compounds were added using the dilution series indicated to duplicate plates and the cells were incubated in media plus compound for 96 hours. An additional plate was fixed in 10% TCA at the time of the addition of compound to provide a measurement of the cell population at time zero, the time of drug addition. Following the 96 hour incubation, cells were fixed in situ by gently aspirating off the culture media and then adding 50 ul of ice cold 10% TCA per well and incubation at 4° C. for 60 minutes. The plates were washed with tap water five times and allowed to air dry for 5 minute. 50 ul of a 0.4% (w/v) Sulforhodamine B solution in 1% (v/v) acetic acid was added per well and the cells were incubated for 30 minutes at room temperature. Following staining, plates were washed four times with 1% acetic acid to remove any unbound dye and then allowed to air dry for 5 minutes. The stain was solubilized with 100 ul of 10 mM Tris pH 10.5 per well and placed on an orbital rotator for 5 minutes. The absorbance was read at 570 nm. Percentage growth was calculated using the absorbance readings from the time zero plate (Tz) and the dilution series plate […] which included a column of cells grown in media without compound as a control (C) using the formulas:
[(Ti−Tz)/(C−Tz)]×100 for concentrations for which Ti>/=Tz
[(Ti−Tz)/Tz]×100 for concentrations for which Ti<Tz.
Three dose response parameters were calculated for each experimental agent. Growth inhibition of 50% (GI50) was calculated from [(Ti−Tz)/(C−Tz)]×100=50, which was the drug concentration resulting in a 50% reduction in the net protein increase (as measured by SRB staining) in control cells during the drug incubation. The drug concentration resulting in total growth inhibition (TGI) was calculated from Ti=Tz. The LC50 (concentration of drug resulting in a 50% reduction in the measured protein at the end of the drug treatment as compared to that at the beginning) indicating a net loss of cells following treatment ws calculated from [(Ti−Tz)/Tz]×100=−50. Values are calculated for each of these three parameters if the level of activity was reached; however, if the effect was not reached or was exceeded, the value for that parameter is expressed as greater or less than the maximum or minimum concentration tested.

[1] = target: T1, N-terminal His-tagged human Src (Homo sapiens, UniProt P12931); assay: Src kinase inhibition assay (33P-ATP filter assay); type: biochemical
T1 construct: His (N); purchased Upstate USA Inc, 706 Forest Street, Charlottesville, Va
T1 sequence (P12931 whole entry): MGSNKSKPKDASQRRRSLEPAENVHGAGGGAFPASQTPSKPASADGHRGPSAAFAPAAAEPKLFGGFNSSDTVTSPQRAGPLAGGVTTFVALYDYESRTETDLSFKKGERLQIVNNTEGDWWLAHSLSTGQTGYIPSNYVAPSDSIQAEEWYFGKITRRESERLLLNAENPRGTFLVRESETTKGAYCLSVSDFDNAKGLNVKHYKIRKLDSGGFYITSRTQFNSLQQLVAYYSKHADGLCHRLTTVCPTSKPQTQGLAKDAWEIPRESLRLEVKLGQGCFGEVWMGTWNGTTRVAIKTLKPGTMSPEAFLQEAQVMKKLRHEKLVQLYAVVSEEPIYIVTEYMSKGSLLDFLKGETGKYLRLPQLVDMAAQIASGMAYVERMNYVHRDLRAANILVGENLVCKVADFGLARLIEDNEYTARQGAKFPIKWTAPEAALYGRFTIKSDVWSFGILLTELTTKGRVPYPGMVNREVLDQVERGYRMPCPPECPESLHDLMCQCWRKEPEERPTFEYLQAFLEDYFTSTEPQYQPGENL
Method: (§1) Compounds were assayed for Src kinase inhibitory activity using N-terminal His-tagged human Src (Upstate USA Inc, 706 Forest Street, Charlottesville, Va.). Serial dilutions of compound were assayed in a final reaction volume of 25 μL by incubating a solution of the above Src kinase (5-10 mU), 8 mM MOPS (3-(N-morpholino) propanesulfonic acid) pH 7.0, 0.2 mM EDTA (ethylenediamine tetracetic acid), 250 μM amino acid sequence KVEKIGEGTYGVVYK (Upstate USA Inc, 706 Forest Street, Charlottesville, Va.), and 10 mM magnesium acetate and [γ-^33P-ATP] (specific activity of about 500 cpm/μmol, concentration as required). The reaction was initiated by the addition of the magnesium acetate and [γ-^33P-ATP] mixture. After incubation for 40 minutes at room temperature, the reaction was stopped by the addition of 5 μL of a 3% phosphoric acid solution. A 10 μL aliquote of the reaction was then spotted onto a P30 filtermat (PerkinElmer, Wellesley, Mass.) and washed three times for five minutes in 75 mM phosphoric acid and once in methanol prior to drying and scintillation counting. Inhibition of Src activity was determined by comparison to assays that contained no inhibitor.

[2] = target: T2, N-terminal His6-tagged recombinant human KDR, residues 790-end (Homo sapiens, UniProt P35968); assay: KDR kinase inhibition assay (33P-ATP filter assay); type: biochemical
T2 construct: recombinant human KDR, residues 790-end; His6 (N); purchased Upstate USA Inc, 706 Forest Street, Charlottesville, Va
T2 sequence (P35968 790-1356 limits assumed): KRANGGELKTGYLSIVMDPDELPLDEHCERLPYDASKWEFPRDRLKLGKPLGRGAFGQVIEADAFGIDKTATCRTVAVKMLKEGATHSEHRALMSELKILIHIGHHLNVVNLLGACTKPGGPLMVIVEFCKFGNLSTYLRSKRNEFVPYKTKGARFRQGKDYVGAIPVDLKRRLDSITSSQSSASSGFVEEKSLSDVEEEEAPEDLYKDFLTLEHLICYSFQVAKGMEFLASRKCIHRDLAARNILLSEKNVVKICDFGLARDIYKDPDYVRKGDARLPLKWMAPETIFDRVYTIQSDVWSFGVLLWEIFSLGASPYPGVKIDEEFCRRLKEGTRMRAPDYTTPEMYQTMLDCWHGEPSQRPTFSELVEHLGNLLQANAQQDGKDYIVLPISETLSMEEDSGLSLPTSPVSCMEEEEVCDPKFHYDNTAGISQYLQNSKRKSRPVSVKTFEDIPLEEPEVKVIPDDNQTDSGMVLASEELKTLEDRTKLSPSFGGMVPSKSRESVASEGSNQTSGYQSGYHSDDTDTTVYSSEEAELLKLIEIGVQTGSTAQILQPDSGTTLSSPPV
Method: as §1, with “for KDR” for “for Src”, “N-terminal His6-tagged recombinant” for “N-terminal His-tagged”, “human KDR, residues 790-end” for “human Src”, “above KDR” for “above Src”, “acid), 0.33 mg/mL myelin basic protein” for “acid), 250 μM amino acid sequence KVEKIGEGTYGVVYK”, “of KDR” for “of Src”

[3] = target: T3, N-terminal GST-tagged recombinant human Flt3, residues 564-end (Homo sapiens, UniProt P36888); assay: Flt3 kinase inhibition assay (33P-ATP filter assay); type: biochemical
T3 construct: recombinant human Flt3, residues 564-end; GST (N); purchased Upstate USA Inc, 706 Forest Street, Charlottesville, Va
T3 sequence (P36888 564-993 limits assumed): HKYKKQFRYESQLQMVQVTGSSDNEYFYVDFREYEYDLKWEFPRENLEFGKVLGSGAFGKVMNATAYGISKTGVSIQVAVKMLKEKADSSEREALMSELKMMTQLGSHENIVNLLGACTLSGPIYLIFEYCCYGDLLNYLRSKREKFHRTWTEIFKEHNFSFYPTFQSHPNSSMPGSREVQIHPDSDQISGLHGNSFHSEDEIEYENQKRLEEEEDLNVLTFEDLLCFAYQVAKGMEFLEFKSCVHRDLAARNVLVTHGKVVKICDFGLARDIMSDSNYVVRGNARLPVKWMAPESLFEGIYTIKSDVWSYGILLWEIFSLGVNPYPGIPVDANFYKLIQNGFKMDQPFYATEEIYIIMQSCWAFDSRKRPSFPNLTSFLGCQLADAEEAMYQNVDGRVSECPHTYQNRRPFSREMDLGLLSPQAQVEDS
Method: Compounds were assayed for Flt3 kinase inhibitory activity using N-terminal GST-tagged recombinant human Flt3, residues 564-end (Upstate USA Inc, 706 Forest Street, Charlottesville, Va.). Serial dilutions of compound were assayed in a final reaction volume of 25 μL by incubating a solution of the above Flt3 kinase (5-10 mU), 8 mM MOPS (3-(N-morpholino) propanesulfonic acid) pH 7.0, 0.2 mM EDTA (ethylenediamine tetracetic acid), 50 μM amino acid sequence EAIYAAPFAKKK (Upstate USA Inc, 706 Forest Street, Charlottesville, Va.), and 10 mM magnesium acetate and [γ-^33P-ATP] (specific activity of about 500 cpm/μmol, concentration as required). The reaction was initiated by the addition of the magnesium acetate and [γ-^33P-ATP] mixture. After incubation for 40 minutes at room temperature, the reaction was stopped by the addition of 5 μL of a 3% phosphoric acid solution. A 10 μL aliquote of the reaction was then spotted onto a P30 filtermat (PerkinElmer, Wellesley, Mass.) and washed three times for five minutes in 75 mM phosphoric acid and once in methanol prior to drying and scintillation counting. Inhibition of Flt3 activity was determined by comparison to assays that contained no inhibitor.

[4] = group with IC50 greater than 100 nM

| SMILES | IC50 [2, 4] | IC50 ([3]; 40 minutes at room temperature) | IC50 (HCT116 cells) | further results |
| --- | --- | --- | --- | --- |
| Cc1cccc(-c2nc(Nc3cc(C)[nH]n3)cc(NC3CCOCC3)n2)c1 [Compound 26, N^4-(5-methyl-1H-pyrazol-3-yl)-N^6-(tetrahydro-2H-pyran-4-yl)-2-m-tolylpyrimidine-4,6-diamine] |  |  | 1 to 10 µM | IC50 [1, 4]: ≤ 1000 nM; IC50 ([2]; 40 minutes at room temperature): ≤ 100 nM |
| COc1ccccc1-c1nc(Nc2cc(C)[nH]n2)cc(NC2CCOCC2)n1 [Compound 30, 2-(2-methoxyphenyl)-N^4-(5-methyl-1H-pyrazol-3-yl)-N^6-(tetrahydro-2H-pyran-4-yl)pyrimidine-4,6-diamine] | ≤ 1000 nM |  |  |  |
| COc1ccccc1-c1nc(Nc2cc(C)[nH]n2)cc(N2CCN(C)CC2)n1 [Compound 43, 2-(2-methoxyphenyl)-N-(5-methyl-1H-pyrazol-3-yl)-6-(4-methylpiperazin-1-yl)pyrimidin-4-amine] | ≤ 1000 nM | ≤ 100 nM | 1 to 10 µM | IC50 [1, 4]: ≤ 1000 nM |
| COc1ccccc1-c1nc(Nc2cc(C)[nH]n2)cc(N(C)CCN(C)C)n1 [Compound 56, N^4-(2-(dimethylamino)ethyl)-2-(2-methoxyphenyl)-N^4-methyl-N^6-(5-methyl-1H-pyrazol-3-yl)pyrimidine-4,6-diamine] | ≤ 1000 nM | ≤ 100 nM |  | GI50 (HCT116 cells): ≤ 1000 nM |
| COCCN(C)c1cc(Nc2cc(C)[nH]n2)nc(-c2ccccc2OC)n1 [Compound 69, N^4-(2-methoxyethyl)-2-(2-methoxyphenyl)-N^4-methyl-N^6-(5-methyl-1H-pyrazol-3-yl)pyrimidine-4,6-diamine] | ≤ 1000 nM |  | 1 to 10 µM | IC50 [3, 4]: ≤ 1000 nM |
| Cc1cc(Nc2cc(N3CCN(C)CC3)nc(-c3ccc(S(C)(=O)=O)cc3)n2)n[nH]1 [Compound 95, N-(5-methyl-1H-pyrazol-3-yl)-6-(4-methylpiperazin-1-yl)-2-(4-(methylsulfonyl)phenyl)pyrimidin-4-amine] |  |  |  | GI50 (HCT116 cells): ≤ 1000 nM |
| COCCN(C)c1cc(Nc2cc(C)[nH]n2)nc(-c2ccc(C(C)(C)C)cc2)n1 [Compound 115, 2-(4-tert-butylphenyl)-N^4-(2-methoxyethyl)-N^4-methyl-N^6-(5-methyl-1H-pyrazol-3-yl)pyrimidine-4,6-diamine] |  | ≤ 100 nM | 1 to 10 µM | IC50 [1, 4]: ≤ 1000 nM |
| Cc1cc(Nc2cc(N(C)CCN(C)C)nc(-c3cccc4c3OCCO4)n2)n[nH]1 [Example 143, 2-(2,3-dihydrobenzo[b][1,4]dioxin-5-yl)-N^4-(2-(dimethylamino)ethyl)-N^4-methyl-N^6-(5-methyl-1H-pyrazol-3-yl)pyrimidine-4,6-diamine] | ≤ 1000 nM | ≤ 100 nM | 1 to 10 µM |  |
| Cc1cc(Nc2cc(N3CCN(C)CC3)nc(-c3cc(C(F)(F)F)cc(C(F)(F)F)c3)n2)n[nH]1 [Example 173, 2-(3,5-bis(trifluoromethyl)phenyl)-N-(5-methyl-1H-pyrazol-3-yl)-6-(4-methylpiperazin-1-yl)pyrimidin-4-amine] |  | ≤ 100 nM |  | GI50 (HCT116 cells): ≤ 1000 nM |
| CCc1ccccc1-c1nc(Nc2cc(C)[nH]n2)cc(N(C)CCOC)n1 [Example 187, 2-(2-ethylphenyl)-N^4-(2-methoxyethyl)-N^4-methyl-N^6-(5-methyl-1H-pyrazol-3-yl)pyrimidine-4,6-diamine] | ≤ 1000 nM | ≤ 100 nM |  | IC50 ([1]; 40 minutes at room temperature): ≤ 100 nM |
| Cc1cc(Nc2cc(N3CCN(C)CC3)nc(-c3c(C)cccc3C)n2)n[nH]1 [Example 194, 2-(2,6-dimethylphenyl)-N-(5-methyl-1H-pyrazol-3-yl)-6-(4-methylpiperazin-1-yl)pyrimidin-4-amine] |  |  |  | IC50 [3, 4]: ≤ 1000 nM |
| Cc1cc(Nc2cc(N(C)CCN(C)C)nc(-c3c(C)cccc3C)n2)n[nH]1 [Example 195, N^4-(2-(dimethylamino)ethyl)-2-(2,6-dimethylphenyl)-N^4-methyl-N^6-(5-methyl-1H-pyrazol-3-yl)pyrimidine-4,6-diamine] |  |  |  | IC50 [3, 4]: ≤ 1000 nM |
| Cc1cc(Nc2cc(NC3CCOCC3)nc(-c3c(C)cccc3C)n2)n[nH]1 [Example 199, 2-(2,6-dimethylphenyl)-N^4-(5-methyl-1H-pyrazol-3-yl)-N^6-(tetrahydro-2H-pyran-4-yl)pyrimidine-4,6-diamine] |  |  |  | IC50 [3, 4]: ≤ 1000 nM |

Further lines, with some results ahead:

| IC50 [2, 4] | IC50 ([3]; 40 minutes at room temperature) | SMILES | IC50 (HCT116 cells) | further results |
| --- | --- | --- | --- | --- |
|  | ≤ 100 nM | COCCN(C)c1cc(Nc2cc(C)[nH]n2)nc(-c2cc(C)ccc2C)n1 [Example 202, 2-(2,5-dimethylphenyl)-N^4-(2-methoxyethyl)-N^4-methyl-N^6-(5-methyl-1H-pyrazol-3-yl)pyrimidine-4,6-diamine] | 1 to 10 µM |  |
| ≤ 1000 nM | ≤ 100 nM | Cc1ccc(C)c(-c2nc(Nc3cc(C)[nH]n3)cc(N(C)CCN(C)C)n2)c1 [Example 207, N^4-(2-(dimethylamino)ethyl)-2-(2,5-dimethylphenyl)-N^4-methyl-N^6-(5-methyl-1H-pyrazol-3-yl)pyrimidine-4,6-diamine] |  |  |
